No end group written: not given here.

Results on one substance are retold here after patent publication US20100004174A1, “USE OF THYMOSIN ALPHA 1 FOR THE PREPARATION OF A MEDICAMENT FOR THE PREVENTION AND TREATMENT OF AUTOIMMUNE DISEASES” (SIGMA-TAU INDUSTRIE FARMACEUTICHE, priority 2006, published 2010).

The subject of test [1] is EAE (experimental autoimmune encephalitis). Put plainly: EAE model induced with MOG35-55 peptide in mice, clinical score and spinal cord histology. The test is classed as in vivo, C57BL6 mice. Here is the method:
To this end, an EAE model was used envisaging the induction of disease by administering a peptide deriving from myelin in susceptible animals. The anima were treated with thymosin alpha 1, whose efficiency was evaluated according to clinical and histological parameters.
EAE is induced in C57BL6 mice by injecting 100 microlitres of emulsion consisting of 100 microgrammes of MOG35-55 (a peptide fragment of a myelinic glycoprotein) in complete Freund adjuvant (CFA, 4 microgrammes/ml) at the base of the tail. EAE induction is favoured by the intraperitoneal administration of the pertoxic toxin at a dosage of 200 ng/mouse the day of immunisation and three days later. The treatment with thymosin alpha 1 (200 ng/Kg) is carried out via intraperitoneal injection according to two experimental designs. In the first case, thymosin is administered starting from the day of MOG administration and for three consecutive days thereafter (Tα1+MOG). In the second case, thymosin is administered starting from the tenth day after MOG administration and for three consecutive days thereafter (MOG+Tα1).
The mice were clinically evaluated daily according to the following parameters: 0, normal; 1, flacid tail or weakness of hind legs; 2, flacid tail associated with weakness of hind legs; 3, partial paralysis of hind legs; 4, total paralysis of hind legs; 5, moribund state. […]

The next test has as its system TNBS colitis. Put plainly: TNBS-induced colitis model of IBD (DAS, MAS, MPO). It is filed as in vivo, mice. Here is the method: To this end, an IBD model was used envisaging the induction of the disease by intracolonic administration of a haptenised derivative of trinitrobenzene sulfonic acid (TNBS). The animals were treated with thymosin alpha 1, whose efficacy was evaluated according to clinical, histological and immunological parameters.
The application of hapten TNBS in the colon causes acute and chronic colitis in the rodents (Fiorucci S, Antonelli E, Distrutti E, Del Soldato P, Flower R J, Clark M J, Morelli A, Perretti M, Ignarro L J. NCX-1015, a nitric-oxide derivative of prednisolone, enhances regulatory T cells in the lamina propria and protects against 2,4,6-trinitrobenzene sulfonic acid-induced colitis in mice. Proc Natl Acad Sci U S A. 2002, 99:15770-5).
The animals were monitored daily for any onset of diarrhea, loss of body weight, blood in the faeces and to check their survival (correlated with the degree of activity of the disease, DAS). At the end of the experiment, the surviving mice were sacrificed, their colon dissected and the microscopic damage was evaluated (called mucosal activity score—MAS). The tissue segments were then used in order to measure the Myeloperoxidase (MPO) activity (an inflammation index).
The sectioned colons were examined under a microscope (×5) and classified according to their microscopic lesions on a scale from 0 to 10 based on criteria reflecting the inflammation, such as hyperemia, bowel thickening, and extension of ulcers.
MPO assays. Neutrophil infiltration in the colon was monitored by measuring MPO activity by means of a spectrophotometric assay with trimethylbenzidine (TMB) as a substrate according to a previously published method (Fiorucci S, Antonelli E, Distrutti E, Del Soldato P, Flower R J, Clark M J, Morelli A, Perretti M, Ignarro L J. NCX-1015, a nitric-oxide derivative of prednisolone, enhances regulatory T cells in the lamina propria and protects against 2,4,6-trinitrobenzene sulfonic acid-induced colitis in mice. Proc Natl Acad Sci U S A. 2002, 99:15770-5). The activity is expressed in U per mg of protein.
(§1) Treatment with thymosin alpha 1. Tα1 (purchased from Sigma, St. Louis, Mo., USA; product no. T3410; molecular formula C129H215N33O55) and the scrambled peptide were provided in the form of sterile dried powders. The powders were reconstituted in sterile water (endotoxin levels were <0.03 pg/ml, by standard Limulus lysate assay). Thymosin alpha 1 was administered at a dosage of 200 microgrammi/kg by intraperitoneal injection for 6 consecutive days starting from the day of TNBS colitis induction.
(§2) All the inflammatory and cytokine assessments were carried out the day after the end of treatment with thymosin alpha 1.

Test [2] concerns CD4+CD25+ lymphocytes isolated from the lamina propria. As to the kind of experiment: Cytokine determination by ELISA on CD4+CD25+ lamina propria lymphocytes of mice with TNBS colitis. It is filed as in vivo. Conditions: TNBS+Tα1 mice; cells stimulated in vitro 48 h with anti-CD3 and anti-CD28, FIG. 4. Here is the method: as §1
Cytokine determination. This was carried out via specific ELISA tests (ELISA kit, R&D Systems Inc, Minneapolis, Minn.) on the supernatants of lymphocyte cell cultures of CD4^+CD^25+ phenotype isolated from the lamina propria and stimulated in vitro for 48 h with antibodies directed against CD3 and CD28 molecules expressed on the lymphocytes (PharMingen, BD, Palo Alto, Calif.).
as §2

[3] abbreviates: TNBS colitis, 200 microgrammi/kg intraperitoneal for 6 consecutive days, assessed the day after end of treatment, FIG. 3.

Regarding “thymosin alpha 1 (Ac-SDAAVDTSSEITTKDLKEKKEVVEEAEN; ends and bridges not checked; UniProt P06454 2-29, looked up) [thymic peptide found in nature; purchased from Sigma, product no; T3410]”, the “de-myelination, histological analysis of semifine spinal chord sections coloured with osmium tetroxide” value in test [1] (MOG-immunised mice treated with thymosin alpha 1, FIG. 2) is “no significant sign of de-myelination”. Further, in test [1] (conclusion from FIG. 1 and FIG. 2), the “overall effect on EAE incidence and neuropathological severity” value was “protective effect”. Also, in the test with TNBS colitis (setting [3]), the “DAS (degree of activity of the disease)” value is listed as “drastic reduction”, the “MAS (mucosal activity score)” value is “drastic reduction” and the “MPO (myeloperoxidase) activity in colon” value is given as “drastic reduction”. Also, the “overall effect on the severity of IBD” value with TNBS colitis (experimental models of colitis, conclusion) is given as “protective effect”. In test [2], the IL-10 production result is “clear prevalence of IL-10 production” and the “inflammatory/anti-inflammatory cytokine production pattern (IFN-γ, IL-17, IL-10)” value is “significantly disrupted”.
